Experimental data from paper PMC10728895, “Stapled Phd Peptides Inhibit Doc Toxin Induced Growth Arrest in Salmonella” (ACS Chemical Biology, 2023).
Positions of bridges follow the written chain, without caps; N, C: chain ends. Non-standard residues stand in square brackets, D forms with d. Residues, ends and D or L forms follow the SMILES beside them. S5 = C=CCCC[C@](C)(N)C(=O)O; Nle = CCCC[C@H](N)C(=O)O

tested on: DocSTm toxin; conditions: DocSTm 5 μM, peptide 50 μM, SYPRO Orange 3×, 20 mM K2HPO4, 50 mM (NH4)2SO4, pH 8.0; average Tm with peptide minus average Tm of free DocSTm; mean ± SD
Protocol: The thermal shift assay was performed using a Mx3005P qPCR System (Agilent) collecting fluorescence data with a temperature ramp of 25 to 95 °C. Samples were prepared in a buffer containing 20 mM K2HPO4 and 50 mM (NH4)2SO4 at pH 8.0, with a final concentration of recombinant Doc protein at 5 μM and Phd peptides at 50 μM. SYPRO Orange dye (Sigma-Aldrich, 5000X stock in DMSO) was used to monitor protein denaturation in a final concentration of 3×. The final sample volume was 20 μL. Each condition was prepared in triplicate in each independent experiment. The melting curves were plotted using GraphPad Prism 9 (GraphPad Software, USA), and the melting temperatures were obtained by fitting the sigmoidal section of the curves to a Boltzmann sigmoid function. For the calculation of thermal shifts ΔTm, the average melting temperature of free DocSTm toxin as determined in the respective peptide measurement cycles was subtracted from the average melting temperature of DocSTm in the presence of the peptide (Table S3).

Row | Structure (SMILES) | ΔTm (thermal shift) of DocSTm in the presence of peptide
1 | CCCC[C@H](NC(=O)[C@H](Cc1c[nH]c2ccccc12)NC(C)=O)C(=O)N[C@@H](CCCNC(=N)N)C(=O)N[C@@H](CCCNC(=N)N)C(=O)N[C@@H](CCC(=O)O)C(=O)N[C@@H](Cc1ccccc1)C(=O)N[C@@H](CCCNC(=N)N)C(=O)N[C@@H](CCCNC(=N)N)C(=O)N[C@H](C(=O)N[C@@H](CCCC)C(=O)N[C@@H](CCCNC(=N)N)C(=O)N[C@H](C(=O)N[C@@H](Cc1c[nH]cn1)C(=O)NCC(=O)N[C@@H](CC(N)=O)C(=O)N[C@@H](CCC(=O)O)C(=O)N[C@@H](CC(C)C)C(=O)N[C@@H](CCCNC(=N)N)C(=O)N[C@@H](CCC(=O)O)C(=O)N[C@@H](CC(C)C)C(=O)N[C@@H](C)C(=O)N[C@@H](CC(=O)O)C(=O)N[C@@H](CCCCN)C(=O)O)C(C)C)[C@@H](C)CC [Peptide 14] (Ac-W[Nle]RREFRRI[Nle]RVHGNELRELADK-OH) | 11–13 °C
2 | CCCC[C@H](NC(=O)[C@H](Cc1c[nH]c2ccccc12)NC(C)=O)C(=O)N[C@@H](CCCNC(=N)N)C(=O)N[C@@H](CCCNC(=N)N)C(=O)N[C@@H](CCC(=O)O)C(=O)N[C@@H](Cc1ccccc1)C(=O)N[C@@H](CCCNC(=N)N)C(=O)N[C@@H](CCCNC(=N)N)C(=O)N[C@H](C(=O)N[C@@H](CCCC)C(=O)N[C@@H](CCCNC(=N)N)C(=O)N[C@H](C(=O)N[C@@H](Cc1c[nH]cn1)C(=O)NCC(=O)N[C@@H](CCCNC(=N)N)C(=O)N[C@@H](CCC(=O)O)C(=O)N[C@@H](CC(C)C)C(=O)N[C@@H](CCCNC(=N)N)C(=O)N[C@@H](CCC(=O)O)C(=O)N[C@@H](CC(C)C)C(=O)N[C@@H](C)C(=O)N[C@@H](CC(=O)O)C(=O)N[C@@H](CCCCN)C(=O)O)C(C)C)[C@@H](C)CC [Peptide 15] (Ac-W[Nle]RREFRRI[Nle]RVHGRELRELADK-OH) | 11–13 °C

same assay, conditions: DocSTm 5 μM, peptide 50 μM, pH 8.0; average ± SD, replicates 3-48 (Table S3)

Row | Structure (SMILES) | Average Tm of DocSTm in the presence of peptide
3 | CCCC[C@H](NC(=O)[C@H](Cc1c[nH]c2ccccc12)NC(C)=O)C(=O)N[C@@H](CC(=O)O)C(=O)N[C@@H](CC(=O)O)C(=O)N[C@@H](CCC(=O)O)C(=O)N[C@@H](Cc1ccccc1)C(=O)N[C@@H](C)C(=O)N[C@@H](C)C(=O)N[C@H](C(=O)N[C@@H](CCCC)C(=O)N[C@@H](C)C(=O)N[C@H](C(=O)N[C@@H](Cc1c[nH]cn1)C(=O)NCC(=O)N[C@@H](CC(N)=O)C(=O)N[C@@H](CCC(=O)O)C(=O)N[C@@H](CC(C)C)C(=O)N[C@@H](CCCNC(=N)N)C(=O)N[C@@H](CCC(=O)O)C(=O)N[C@@H](CC(C)C)C(=O)N[C@@H](C)C(=O)N[C@@H](CCCNC(=N)N)C(=O)N[C@@H](CCCCN)C(=O)O)C(C)C)[C@@H](C)CC [Peptide 13] (Ac-W[Nle]DDEFAAI[Nle]AVHGNELRELARK-OH) | 72.7 ± 0.4 °C
4 | CCCC[C@H](NC(=O)[C@H](Cc1c[nH]c2ccccc12)NC(C)=O)C(=O)N[C@@H](CCCNC(=N)N)C(=O)N[C@@H](CCCNC(=N)N)C(=O)N[C@@H](CCC(=O)O)C(=O)N[C@@H](Cc1ccccc1)C(=O)N[C@@H](CCCNC(=N)N)C(=O)N[C@@H](CCCNC(=N)N)C(=O)N[C@H](C(=O)N[C@@H](CCCC)C(=O)N[C@@H](CCCNC(=N)N)C(=O)N[C@H](C(=O)N[C@@H](Cc1c[nH]cn1)C(=O)NCC(=O)N[C@@H](CC(N)=O)C(=O)N[C@@H](CCC(=O)O)C(=O)N[C@@H](CC(C)C)C(=O)N[C@@H](CCCNC(=N)N)C(=O)N[C@@H](CCC(=O)O)C(=O)N[C@@H](CC(C)C)C(=O)N[C@@H](C)C(=O)N[C@@H](CC(=O)O)C(=O)N[C@@H](CCCCN)C(=O)O)C(C)C)[C@@H](C)CC [Peptide 14] (Ac-W[Nle]RREFRRI[Nle]RVHGNELRELADK-OH) | 56.0 ± 0.1 °C
5 | CCCC[C@H](NC(=O)[C@H](Cc1c[nH]c2ccccc12)NC(C)=O)C(=O)N[C@@H](CCCNC(=N)N)C(=O)N[C@@H](CCCNC(=N)N)C(=O)N[C@@H](CCC(=O)O)C(=O)N[C@@H](Cc1ccccc1)C(=O)N[C@@H](CCCNC(=N)N)C(=O)N[C@@H](CCCNC(=N)N)C(=O)N[C@H](C(=O)N[C@@H](CCCC)C(=O)N[C@@H](CCCNC(=N)N)C(=O)N[C@H](C(=O)N[C@@H](Cc1c[nH]cn1)C(=O)NCC(=O)N[C@@H](CCCNC(=N)N)C(=O)N[C@@H](CCC(=O)O)C(=O)N[C@@H](CC(C)C)C(=O)N[C@@H](CCCNC(=N)N)C(=O)N[C@@H](CCC(=O)O)C(=O)N[C@@H](CC(C)C)C(=O)N[C@@H](C)C(=O)N[C@@H](CC(=O)O)C(=O)N[C@@H](CCCCN)C(=O)O)C(C)C)[C@@H](C)CC [Peptide 15] (Ac-W[Nle]RREFRRI[Nle]RVHGRELRELADK-OH) | 57.8 ± 0.7 °C
6 | CCCC[C@H](NC(=O)[C@H](Cc1c[nH]c2ccccc12)NC(C)=O)C(=O)N[C@@H](CCCNC(=N)N)C(=O)N[C@@H](CC(N)=O)C(=O)N[C@@H](CCC(N)=O)C(=O)N[C@@H](Cc1ccccc1)C(=O)N[C@@H](C)C(=O)N[C@@H](C)C(=O)N[C@H](C(=O)N[C@@H](CCCC)C(=O)N[C@@H](CCCNC(=N)N)C(=O)N[C@H](C(=O)N[C@@H](Cc1c[nH]cn1)C(=O)NCC(=O)N[C@@H](CC(N)=O)C(=O)N[C@@H](CCC(N)=O)C(=O)N[C@@H](CC(C)C)C(=O)N[C@@H](CCCNC(=N)N)C(=O)N[C@@H](CCC(=O)O)C(=O)N[C@@H](CC(C)C)C(=O)N[C@@H](C)C(=O)N[C@@H](CC(N)=O)C(=O)N[C@@H](CCCCN)C(=O)O)C(C)C)[C@@H](C)CC [Peptide 22] (Ac-W[Nle]RNQFAAI[Nle]RVHGNQLRELANK-OH) | 54.7 ± 3.1 °C
7 | CCCC[C@H](NC(=O)[C@H](Cc1c[nH]c2ccccc12)NC(C)=O)C(=O)N[C@@H](CCCNC(=N)N)C(=O)N[C@@H](CC(N)=O)C(=O)N[C@@H](CCC(N)=O)C(=O)N[C@@H](Cc1ccccc1)C(=O)N[C@@H](C)C(=O)N[C@@H](C)C(=O)N[C@H](C(=O)N[C@@H](CCCC)C(=O)N[C@@H](CCCNC(=N)N)C(=O)N[C@H](C(=O)N[C@@H](Cc1c[nH]cn1)C(=O)NCC(=O)N[C@@]1(C)CCCC=CCCC[C@@](C)(C(=O)N[C@@H](CC(C)C)C(=O)N[C@@H](C)C(=O)N[C@@H](CC(N)=O)C(=O)N[C@@H](CCCCN)C(=O)O)NC(=O)[C@H](CCCNC(=N)N)NC(=O)[C@H](CC(C)C)NC(=O)[C@H](CCC(N)=O)NC1=O)C(C)C)[C@@H](C)CC [Peptide 23] (Ac-W[Nle]RNQFAAI[Nle]RVHG[S5]QLR[S5]LANK-OH; staple 15-19) | 57.5 ± 0.9 °C
8 | CCCC[C@H](NC(=O)[C@H](Cc1c[nH]c2ccccc12)NC(C)=O)C(=O)N[C@@H](CCCNC(=N)N)C(=O)N[C@@H](CC(N)=O)C(=O)N[C@@H](CCC(N)=O)C(=O)N[C@@H](Cc1ccccc1)C(=O)N[C@@H](CCCNC(=N)N)C(=O)N[C@@H](C)C(=O)N[C@H](C(=O)N[C@@H](CCCC)C(=O)N[C@@H](CCCNC(=N)N)C(=O)N[C@H](C(=O)N[C@@H](Cc1c[nH]cn1)C(=O)NCC(=O)N[C@@H](CC(N)=O)C(=O)N[C@@H](CCC(N)=O)C(=O)N[C@@H](CC(C)C)C(=O)N[C@@H](CCCNC(=N)N)C(=O)N[C@@H](CCC(=O)O)C(=O)N[C@@H](CC(C)C)C(=O)N[C@@H](C)C(=O)N[C@@H](CC(N)=O)C(=O)N[C@@H](CCCCN)C(=O)O)C(C)C)[C@@H](C)CC [Peptide 24] (Ac-W[Nle]RNQFRAI[Nle]RVHGNQLRELANK-OH) | 54.3 ± 1.6 °C
9 | CCCC[C@H](NC(=O)[C@H](Cc1c[nH]c2ccccc12)NC(C)=O)C(=O)N[C@@H](CCCNC(=N)N)C(=O)N[C@@H](CC(N)=O)C(=O)N[C@@H](CCC(N)=O)C(=O)N[C@@H](Cc1ccccc1)C(=O)N[C@@H](CCCNC(=N)N)C(=O)N[C@@H](C)C(=O)N[C@H](C(=O)N[C@@H](CCCC)C(=O)N[C@@H](CCCNC(=N)N)C(=O)N[C@H](C(=O)N[C@@H](Cc1c[nH]cn1)C(=O)NCC(=O)N[C@@]1(C)CCCC=CCCC[C@@](C)(C(=O)N[C@@H](CC(C)C)C(=O)N[C@@H](C)C(=O)N[C@@H](CC(N)=O)C(=O)N[C@@H](CCCCN)C(=O)O)NC(=O)[C@H](CCCNC(=N)N)NC(=O)[C@H](CC(C)C)NC(=O)[C@H](CCC(N)=O)NC1=O)C(C)C)[C@@H](C)CC [Peptide 25] (Ac-W[Nle]RNQFRAI[Nle]RVHG[S5]QLR[S5]LANK-OH; staple 15-19) | 56.4 ± 3.0 °C
10 | CCCC[C@H](NC(=O)[C@H](Cc1c[nH]c2ccccc12)NC(C)=O)C(=O)N[C@@H](CCCNC(=N)N)C(=O)N[C@@H](CC(N)=O)C(=O)N[C@@H](CCC(=O)O)C(=O)N[C@@H](Cc1ccccc1)C(=O)N[C@@H](C)C(=O)N[C@@H](C)C(=O)N[C@H](C(=O)N[C@@H](CCCC)C(=O)N[C@@H](CCCNC(=N)N)C(=O)N[C@H](C(=O)N[C@@H](Cc1c[nH]cn1)C(=O)NCC(=O)N[C@@H](CC(N)=O)C(=O)N[C@@H](CCC(N)=O)C(=O)N[C@@H](CC(C)C)C(=O)N[C@@H](CCCNC(=N)N)C(=O)N[C@@H](CCC(=O)O)C(=O)N[C@@H](CC(C)C)C(=O)N[C@@H](C)C(=O)N[C@@H](CC(N)=O)C(=O)N[C@@H](CCCCN)C(=O)O)C(C)C)[C@@H](C)CC [Peptide 26] (Ac-W[Nle]RNEFAAI[Nle]RVHGNQLRELANK-OH) | 62.9 ± 0.3 °C
11 | CCCC[C@H](NC(=O)[C@H](Cc1c[nH]c2ccccc12)NC(C)=O)C(=O)N[C@@H](CCCNC(=N)N)C(=O)N[C@@H](CC(N)=O)C(=O)N[C@@H](CCC(=O)O)C(=O)N[C@@H](Cc1ccccc1)C(=O)N[C@@H](CCCNC(=N)N)C(=O)N[C@@H](C)C(=O)N[C@H](C(=O)N[C@@H](CCCC)C(=O)N[C@@H](CCCNC(=N)N)C(=O)N[C@H](C(=O)N[C@@H](Cc1c[nH]cn1)C(=O)NCC(=O)N[C@@H](CC(N)=O)C(=O)N[C@@H](CCC(N)=O)C(=O)N[C@@H](CC(C)C)C(=O)N[C@@H](CCCNC(=N)N)C(=O)N[C@@H](CCC(=O)O)C(=O)N[C@@H](CC(C)C)C(=O)N[C@@H](C)C(=O)N[C@@H](CC(N)=O)C(=O)N[C@@H](CCCCN)C(=O)O)C(C)C)[C@@H](C)CC [Peptide 28] (Ac-W[Nle]RNEFRAI[Nle]RVHGNQLRELANK-OH) | 62.1 ± 0.2 °C
12 | CCCC[C@H](NC(=O)[C@H](Cc1c[nH]c2ccccc12)NC(C)=O)C(=O)N[C@@]1(C)CCCC=CCCC[C@@](C)(C(=O)N[C@@H](C)C(=O)N[C@H](C(=O)N[C@@H](CCCC)C(=O)N[C@@H](C)C(=O)N[C@H](C(=O)N[C@@H](Cc2c[nH]cn2)C(=O)NCC(=O)N[C@@H](CCCNC(=N)N)C(=O)N[C@@H](CCC(N)=O)C(=O)N[C@@H](CC(C)C)C(=O)N[C@@H](CCCNC(=N)N)C(=O)N[C@@H](CCCNC(=N)N)C(=O)N[C@@H](CC(C)C)C(=O)N[C@@H](C)C(=O)N[C@@H](CCCNC(=N)N)C(=O)N[C@@H](CCCCN)C(=O)O)C(C)C)[C@@H](C)CC)NC(=O)[C@H](Cc2ccccc2)NC(=O)[C@H](CCC(=O)O)NC(=O)[C@H](CC(N)=O)NC1=O [Peptide 34] (Ac-W[Nle][S5]NEF[S5]AI[Nle]AVHGRQLRRLARK-OH; staple 3-7) | 58.9 ± 1.1 °C
